Results published in patent publication US20060258745A1, “Deramciclane-fumarate tablets” (EGIS GYOGYSZERGYAR RT., priority 2003, published 2006).

Legend:
[1] = Crushing strength of compressed pure deramciclane-fumarate powder; format: physicochemical; details: 300 mg powder, die cavity of 10 mm diameter, eccentric press, compression force 5-40 kN
From the text: Due to the weak cohesion characteristics of deramciclane-fumarate on compression of the particles of the active ingredient acceptable tablet strength can not be obtained.

[2] = Water solubility; format: physicochemical

- crushing strength of the tablets [1]: ≤ 10 N
- water solubility [2]: low water solubility
Compound: CN(C)CCOC1(c2ccccc2)CC2CCC1(C)C2(C)C.O=C(O)/C=C/C(=O)O [deramciclane-fumarate, (1R,2S,4R)-(−)-2-dimethylaminoethoxy-2-phenyl-1,7,7-trimethyl-bicyclo[2.2.1]heptane-2-(E)-butenedioate (1:1)]
